Source: patent US11739099B2 (CURIA IP HOLDINGS, LLC, priority 2014, dated 2023)
Values belong to the molecule of their own block, whether it stands above or below them.

Tests used:
[1] = Solid-state change of Rifaximin α form on wet granulation with purified water; format: physicochemical; conditions: purified water as binding agent
[2] = Solid-state stability of the α/β ratio after dry granulation and tableting, DRX (powder); format: physicochemical; conditions: tablets before coating, ground in a mortar
[3] = literature studies (Cellai et al. 1983; Viscomi et al. 2008); cited from earlier work

Amount of Rifaximin β form afforded by wet granulation [1]: < 50%
Molecule: CO[C@H]1/C=C/O[C@@]2(C)Oc3c(C)c(O)c4c(O)c(c5c(nc6cc(C)ccn65)c4c3C2=O)NC(=O)/C(C)=C\C=C\[C@H](C)[C@H](O)[C@@H](C)[C@@H](O)[C@@H](C)[C@H](OC(C)=O)[C@@H]1C [Rifaximin α form, Rifaximin]

Relative ratio between the α/β polymorphic form after dry granulation and tableting [2]: stable
Molecule: Rifaximin [Rifaximin α/β polymorphic mixture 88/12]

Molecule: Rifaximin [δ]
Absorption from the intestine [3]: could be significantly absorbed
